From the NIST ThermoML archive (doi:10.1021/je0504156)

Experiment: xn = mol fraction of the nth substance listed
Details: 101 kPa, Liquid

Cc1cccc(O)c1 [3-methylphenol] + OCCO
Details | mass density [kg/m3] | viscosity [mPa·s]
308.15 K, x1 = 0.0998 | 1088.36 | 11.72
308.15 K, x1 = 0.1999 | 1077.36 | 12.32
308.15 K, x1 = 0.3 | 1067.31 | 12.33
308.15 K, x1 = 0.3996 | 1058.33 | 11.88
308.15 K, x1 = 0.5 | 1050.38 | 11.2
308.15 K, x1 = 0.5967 | 1043.44 | 10.37
308.15 K, x1 = 0.7002 | 1036.6 | 9.452
308.15 K, x1 = 0.8 | 1031.15 | 8.695
308.15 K, x1 = 0.8989 | 1026.2 | 8.03
308.15 K, x1 = 1 | 1021.64 | 7.701
313.15 K, x1 = 0.0998 | 1084.66 | 9.704
313.15 K, x1 = 0.1999 | 1073.58 | 10.13
313.15 K, x1 = 0.3 | 1063.47 | 10.02
313.15 K, x1 = 0.3996 | 1054.44 | 9.673
313.15 K, x1 = 0.5 | 1046.47 | 9.067
313.15 K, x1 = 0.5967 | 1039.51 | 8.417
313.15 K, x1 = 0.7002 | 1032.66 | 7.67
313.15 K, x1 = 0.8 | 1027.19 | 7.03
313.15 K, x1 = 0.8989 | 1022.22 | 6.496
313.15 K, x1 = 1 | 1017.63 | 6.12
318.15 K, x1 = 0.0998 | 1080.98 | 8.113
318.15 K, x1 = 0.1999 | 1069.79 | 8.371
318.15 K, x1 = 0.3 | 1059.61 | 8.275
318.15 K, x1 = 0.3996 | 1050.55 | 7.906
318.15 K, x1 = 0.5 | 1042.56 | 7.441
318.15 K, x1 = 0.5967 | 1035.59 | 6.893
318.15 K, x1 = 0.7002 | 1028.7 | 6.322
318.15 K, x1 = 0.8 | 1023.23 | 5.853
318.15 K, x1 = 0.8989 | 1018.22 | 5.346
318.15 K, x1 = 1 | 1013.6 | 5.022
323.15 K, x1 = 0.0998 | 1077.28 | 6.869
323.15 K, x1 = 0.1999 | 1065.98 | 7.015
323.15 K, x1 = 0.3 | 1055.75 | 6.894
323.15 K, x1 = 0.3996 | 1046.64 | 6.572
323.15 K, x1 = 0.5 | 1038.63 | 6.182
323.15 K, x1 = 0.5967 | 1031.63 | 5.763
323.15 K, x1 = 0.7002 | 1024.74 | 5.27
323.15 K, x1 = 0.8 | 1019.25 | 4.811
323.15 K, x1 = 0.8989 | 1014.22 | 4.433
323.15 K, x1 = 1 | 1009.56 | 4.158
333.15 K, x1 = 0.0998 | 1069.86 | 5.133
333.15 K, x1 = 0.1999 | 1058.35 | 5.087
333.15 K, x1 = 0.3 | 1047.97 | 4.972
333.15 K, x1 = 0.3996 | 1038.8 | 4.817
333.15 K, x1 = 0.5 | 1030.72 | 4.45
333.15 K, x1 = 0.5967 | 1023.71 | 4.145
333.15 K, x1 = 0.7002 | 1016.76 | 3.794
333.15 K, x1 = 0.8 | 1011.25 | 3.488
333.15 K, x1 = 0.8989 | 1006.16 | 3.219
333.15 K, x1 = 1 | 1001.44 | 2.98
343.15 K, x1 = 0.0998 | 1060.26 | 3.81
343.15 K, x1 = 0.1999 | 1048.59 | 3.82
343.15 K, x1 = 0.3 | 1038.14 | 3.72
343.15 K, x1 = 0.3996 | 1028.9 | 3.554
343.15 K, x1 = 0.5 | 1020.81 | 3.332
343.15 K, x1 = 0.5967 | 1013.76 | 3.096
343.15 K, x1 = 0.7002 | 1006.79 | 2.858
343.15 K, x1 = 0.8 | 1001.25 | 2.635
343.15 K, x1 = 0.8989 | 996.13 | 2.426
343.15 K, x1 = 1 | 991.33 | 2.231
353.15 K, x1 = 0.0998 | 1055.21 | 2.995
353.15 K, x1 = 0.1999 | 1043.24 | 2.967
353.15 K, x1 = 0.3 | 1032.71 | 2.882
353.15 K, x1 = 0.3996 | 1023.39 | 2.734
353.15 K, x1 = 0.5 | 1015.21 | 2.566
353.15 K, x1 = 0.5967 | 1008.1 | 2.401
353.15 K, x1 = 0.7002 | 1001.08 | 2.237
353.15 K, x1 = 0.8 | 995.5 | 2.048
353.15 K, x1 = 0.8989 | 990.32 | 1.901
353.15 K, x1 = 1 | 985.42 | 1.759
